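All cell lines were grown in 96-well plates and treated with compound for 48 hours. GI50 is the concentration that inhibits growth by half.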 Active and inactive are the calls of the source. Cut-off read from the data, not from the text of the source: active = GI50 up to about 1.1 µM and inactive = higher.
Assays:
Assay in all cases: DTP human tumour cell line panel, 48 h
[1] = test system: SNB-19
[2] = test system: COLO 205
[3] = test system: HT-29
[4] = test system: TK-10
[5] = test system: OVCAR-3
[6] = test system: SK-OV-3
[7] = test system: M14
[8] = test system: IGROV-1
[9] = test system: T47D
[10] = test system: MDA-MB-435
[11] = test system: KM12
[12] = test system: NCI/ADR-RES
[13] = test system: RPMI-8226
[14] = test system: DU-145
[15] = test system: SR
[16] = test system: SK-MEL-5
[17] = test system: OVCAR-5
[18] = test system: SF-539
[19] = test system: NCI-H460
[20] = test system: SW-620

Measured: GI50

COC(=O)CCc1cc(OC)c(O)c(C(Cc2ccc(OC)c(OC)c2)C(=O)OC)c1 (centres undefined)
inactive: [1] > 100 µM | [2] > 100 µM | [3] > 100 µM | [4] > 100 µM | [5] > 100 µM | [6] > 100 µM | [7] > 100 µM | [8] > 100 µM | [9] > 100 µM | [10] > 100 µM | [11] > 100 µM | [12] > 100 µM | [13] > 100 µM | [14] > 100 µM | [15] > 100 µM | [16] > 100 µM | [17] > 100 µM | [18] > 100 µM | [19] > 100 µM | [20] > 100 µM

CCSc1c2cc(OC)ccc2nc2ccc(OC)cc12
inactive: [1] 26.2 µM | [2] 7.26 µM | [3] 17.8 µM | [4] 9.64 µM | [5] 16.9 µM | [6] 23.3 µM | [7] 11.9 µM | [8] 18.3 µM | [9] 8.87 µM | [10] 5.13 µM | [11] 11.2 µM | [12] 12.1 µM | [13] 4.24 µM | [14] 18.2 µM | [15] 2.76 µM | [16] 6.65 µM | [17] 8.09 µM | [18] 15.3 µM | [19] 13.2 µM | [20] 17.7 µM

O=[N+]([O-])C(/C=C(\Cl)[N+](=O)[O-])=C(N1CCOCC1)N1CCOCC1
inactive: [1] > 100 µM | [2] 19.8 µM | [3] 33.4 µM | [4] 47 µM | [5] 19.7 µM | [6] > 100 µM | [7] > 100 µM | [8] > 100 µM | [9] 24.5 µM | [10] > 100 µM | [11] > 100 µM | [12] > 100 µM | [13] 26.5 µM | [14] > 100 µM | [15] 39.6 µM | [16] > 100 µM | [17] 21.2 µM | [18] 22.3 µM | [19] > 100 µM

O=C(/C=C/c1ccc2c(c1)OCO2)Cc1nc2ccccc2[nH]c1=O
inactive: [1] 24.2 µM | [2] 52.6 µM | [3] 28.5 µM | [4] 18.5 µM | [5] 27.3 µM | [6] 18.6 µM | [7] 11.7 µM | [8] 21 µM | [9] 12 µM | [10] 20 µM | [11] 18.9 µM | [12] 22.1 µM | [13] 28.1 µM | [14] 29.2 µM | [15] 25.5 µM | [16] 32.6 µM | [17] 22.9 µM | [18] 75 µM | [19] 22.6 µM | [20] 30.4 µM

CN(Cc1cnc2nc(N)nc(N)c2n1)c1ccc(C(=O)NC(CCC(=O)NCCC(P(=O)(O)O)P(=O)(O)O)C(=O)O)cc1 (centres undefined)
inactive: [1] > 87.7 µM | [2] > 82.6 µM | [3] 6 µM | [4] > 100 µM | [5] 37.2 µM | [6] 1.13 µM | [7] 4.85 µM | [8] 35.2 µM | [9] > 67.9 µM | [10] 6.03 µM | [11] 6.38 µM | [12] 21.5 µM | [13] 6.85 µM | [14] 21.2 µM | [15] 3.17 µM | [16] 43.4 µM | [17] 25.1 µM | [18] 10.3 µM | [19] 4.35 µM | [20] > 23.3 µM

Source: ChEMBL document CHEMBL1201862, “PubChem BioAssay data set” (2004)
